Reference: article PMC12452952, “Subtype-specific structural features of the hearing loss–associated human P2X2 receptor” (Proceedings of the National Academy of Sciences of the …, 2025)

Biological target: T1, human P2X2 receptor (hP2X2R) (Homo sapiens, UniProt Q9UBL9)
T1 construct: gene P2RX2; full-length wild-type
T1 sequence (Q9UBL9 1-471): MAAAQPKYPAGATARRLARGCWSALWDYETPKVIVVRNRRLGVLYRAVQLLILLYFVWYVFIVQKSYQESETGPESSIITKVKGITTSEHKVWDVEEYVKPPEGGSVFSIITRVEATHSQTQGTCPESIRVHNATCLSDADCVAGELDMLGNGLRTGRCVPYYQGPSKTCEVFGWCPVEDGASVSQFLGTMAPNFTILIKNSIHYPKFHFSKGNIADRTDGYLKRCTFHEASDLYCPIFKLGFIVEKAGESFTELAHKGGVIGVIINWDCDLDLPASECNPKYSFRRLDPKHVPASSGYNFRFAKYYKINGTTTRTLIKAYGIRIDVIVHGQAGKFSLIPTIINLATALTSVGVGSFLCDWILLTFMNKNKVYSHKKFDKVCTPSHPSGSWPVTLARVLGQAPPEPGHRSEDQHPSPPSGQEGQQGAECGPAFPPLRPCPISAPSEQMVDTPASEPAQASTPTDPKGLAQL
Assay: cryo-EM structures of ATP-bound homotrimer ([…] and […] Å); EC50 by two-electrode voltage clamp in Xenopus oocytes (divalent-free)
Format: cell-based

Nc1ncnc2c1ncn2[C@@H]1O[C@H](COP(=O)(O)OP(=O)(O)OP(=O)(O)O)[C@@H](O)[C@H]1O [ATP]
EC50: 0.156 ± 0.096 µM
